# Key:
# [1] = test system: velvetleaf (ABUTH); experiment: Test J Compounds 2 and 6 alone and in combination with other herbicides, foliage spray; assay type: in vivo, Abutilon theophrasti; parameters: key: 0 = no effect, 100 = complete control; conditions: applied alone
# In short: (§1)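 Greenhouse plants grown 7–11 days (2–18 cm, 1- to 4-leaf) were foliage-sprayed at 541 L/ha with compounds alone or mixed, in aqueous nonionic-surfactant carrier, triplicate. Visual control rated 0–100 versus untreated plants 15 days after treatment; expected additive mixture effects by Colby's Equation.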
# [2] = test system: barnyardgrass (ECHCG); experiment: as above; assay type: in vivo, Echinochloa crus-galli; parameters: key: percentage herbicidal effect (observed); conditions: applied alone
# In short: as §1
# [3] = test system: lambsquarters (CHEAL); experiment: as above; assay type: in vivo, Chenopodium album; parameters: key: % herbicidal effect (observed); conditions: applied alone
# In short: as §1
# [4] = test system: pigweed (AMARE); experiment: as above; assay type: in vivo, Amaranthus retroflexus; parameters: key: 0 = no effect, 100 = complete control; conditions: applied alone
# From the text: (§2) Colby's Equation was used to calculate the expected additive herbicidal effect of the mixtures of Compound 6 with Harmony® Extra (i.e. a 2:1 mixture by weight of thifensulfuron-methyl and tribenuron-methyl). Colby's Equation (Colby, S. R. “Calculating Synergistic and Antagonistic Responses of Herbicide Combinations,” Weeds, 15(1), pp 20-22 (1967)) calculates the expected additive effect of herbicidal mixtures, and for two active ingredients is of the form: Pa+b=Pa+Pb−(PaPb/100) wherein • Pa+b is the percentage effect of the mixture expected from additive contribution of the individual components, • Pa is the observed percentage effect of the first active ingredient at the same use rate as in the mixture, and • Pb is the observed percentage effect of the second active ingredient at the same use rate as in the mixture.
# (§3) Seeds of test plants consisting of barnyardgrass (ECHCG; Echinochloa crus-galli (L.) Beauv.), blackgrass (ALOMY; Alopecurus myosuroides Huds.), Surinam grass (BRADC; Urochloa decumbens (Staph) R. D. Webster, previously named Brachiaria decumbens Stapf), cocklebur (XANST, Xanthium strumarium L.), corn (ZEAMD, Zea mays L. cv. ‘Pioneer 33G26’), large crabgrass (DIGSA, Digitaria sanguinalis (L.) Scop.), giant foxtail (SETFA, Setaria faberi Herrm.), lambsquarters (CHEAL, Chenopodium album L.), morningglory (IPOCO, Ipomoea coccinea L.), pigweed (AMARE, Amaranthus retroflexus L.), velvetleaf (ABUTH, Abutilon theophrasti Medik.) wheat (TRZAS, Triticum aestivum L. cv. ‘Recital’) and wild oat (AVEFA, Avena fatua L.) were planted in Redi-Earth® planting medium (Scotts Company, 14111 Scottslawn Road, Marysville, Ohio 43041) comprising spaghnum peat moss and vermiculite. Seeds of small-seeded species were planted about 1 cm deep; larger seeds were planted about 2.5 cm deep. Plants were grown in a greenhouse using supplemental lighting to maintain a photoperiod of about 14 hours; daytime and nighttime temperatures were about 24-30° C. and 22-25° C., respectively. Balanced fertilizer was applied through the watering system. The plants were grown for 7 to 11 days so that at time of treatment the plants ranged in height from 2 to 18 cm (1- to 4-leaf stage). Treatments consisted of Compounds 2 and 6 (technical material), atrazine (90DF), terbacil (Sinbar® 80DF), hexazinone (Velpar® 75WG), diuron (Karmex® 80WP) and paraquat (Gramoxone® Extra, 37%) alone and in combination, suspended or dissolved in an aqueous solvent comprising a nonionic surfactant and applied as a foliage spray using a volume of 541 L/ha. Each treatment was triply replicated. […] Treated plants and controls were maintained in the greenhouse and watered as needed with care to not wet the foliage for the first 24 hours after treatment. The effects on the plants 15 days after treatment were visually compared to untreated controls. Plant response ratings, listed in Table J as the means of the thee replicates, are based on a scale of 0 to 100 where 0 is no effect and 100 is complete control. Also listed in Table J are the expected effects for the mixtures calculated using Colby's Equation.
# [5] = test system: morningglory (IPOCO); experiment: as above; assay type: in vivo, Ipomoea coccinea; parameters: key: 0 = no effect, 100 = complete control; conditions: applied alone
# In short: as §1
# [6] = test system: corn (ZEAMD); experiment: as above; assay type: in vivo, Zea mays; parameters: key: percentage herbicidal effect (observed); conditions: applied alone
# From the text: as §2, §3
# [7] = test system: Surinam grass (BRADC); experiment: as above; assay type: in vivo, Urochloa decumbens; parameters: key: 0 = no effect, 100 = complete control; conditions: applied alone
# In short: as §1
# [8] = test system: cocklebur (XANST); experiment: as above; assay type: in vivo, Xanthium strumarium; parameters: key: 0 = no effect, 100 = complete control; conditions: applied alone
# In short: as §1
# [9] = test system: giant foxtail (SETFA); experiment: as above; assay type: in vivo, Setaria faberi; parameters: key: 0 = no effect, 100 = complete control; conditions: applied alone
# In short: as §1
# [10] = test system: wild oat (AVEFA); experiment: as above; assay type: in vivo, Avena fatua; parameters: key: 0 = no effect, 100 = complete control; conditions: applied alone
# In short: as §1
# [11] = test system: Russian thistle; experiment: Test F pre-/postemergence herbicide test; assay type: in vivo, Salsola kali; conditions: 125 g ai/ha
# From the text: (§4) Seeds of plant species selected from annual blugrass (Poa annua L.), blackgrass (Alopecurus myosuroides Huds.), catchweed bedstraw (Gallium aparine L.), common chickweed (Stellaria media (L.) Vill./Cyr.), downy bromegrass (Bromus tectorum L.), green foxtail (Setaria viridis (L.) Beauv.), Italian ryegrass (Lolium multiflorum Lam.), kochia (Kochia scoparia (L.). Schrad.), lambsquarters (Chenopodium album L.), littleseed canarygrass (Phalaris minor Retz.), pigweed (Amaranthus retroflexus L.), Russian thistle (Salsola kali L. ssp. Ruthenica (Iljin) Soo), wild buckwheat (Polygonum convolvulus L.), wild mustard (Sinapis arvensis L.), wild oat (Avena fatua L.), windgrass (Apera spica-venti (L.) Beauv.), winter barley (Hordeum vulgare L.), and wheat (Triticum aestivum L.) were planted and treated preemergence with test chemicals formulated in a non-phytotoxic solvent mixture which included a surfactant.
# (§5) At the same time, plants selected from these crop and weed species were treated with postemergence applications of some of the test chemicals formulated in the same manner. Plants ranged in height from 2 to 18 cm (1- to 4-leaf stage) for postemergence treatments. Treated plants and controls were maintained in a greenhouse for 12 to 14 days, after which time all species were compared to controls and visually evaluated. […]
# [12] = test system: wild buckwheat; experiment: Test F pre-/postemergence herbicide test; assay type: in vivo, Polygonum convolvulus; conditions: 125 g ai/ha
# From the text: as §4, §5
# [13] = test system: windgrass; experiment: Test F pre-/postemergence herbicide test; assay type: in vivo, Apera spica-venti; conditions: 125 g ai/ha
# From the text: as §4, §5
compound,measurement,setting,value
"CCNC(=O)c1ccc(F)c(NC(=O)c2cc(C(C)(C)C)nn2CC)c1 [Compound 2, 3-(1,1-dimethylethyl)-1-ethyl-N-[5-[(ethylamino)carbonyl]-2-fluorophenyl]-1H-pyrazole-5-carboxamide]",ABUTH Obsd.,[1]; 62 g a.i./ha,17
same,ABUTH Obsd.,[1]; 125 g a.i./ha,18
same,ECHCG Obsd.,[2]; 62 g a.i./ha,13
same,ECHCG Obsd.,[2]; 125 g a.i./ha,8
same,CHEAL Obsd.,[3]; 62 g a.i./ha,40
same,CHEAL Obsd.,[3]; 125 g a.i./ha,55
same,AMARE Obsd.,[4]; 62 g a.i./ha,47
same,AMARE Obsd.,[4]; 125 g a.i./ha,68
same,IPOCO Obsd.,[5]; 62 g a.i./ha,17
same,IPOCO Obsd.,[5]; 125 g a.i./ha,27
same,ZEAMD Obsd.,[6]; 62 g a.i./ha,25
same,ZEAMD Obsd.,[6]; 125 g a.i./ha,65
same,BRADC Obsd.,[7]; 62 g a.i./ha,8
same,BRADC Obsd.,[7]; 125 g a.i./ha,17
same,XANST Obsd.,[8]; 62 g a.i./ha,50
same,XANST Obsd.,[8]; 125 g a.i./ha,58
same,SETFA Obsd.,[9]; 62 g a.i./ha,28
same,SETFA Obsd.,[9]; 125 g a.i./ha,32
same,AVEFA Obsd.,[10]; 62 g a.i./ha,8
same,AVEFA Obsd.,[10]; 125 g a.i./ha,15
CCc1nn(C(C)(C)C)cc1C(=O)Nc1cc(C(=O)N(CC)CC)ccc1F [Compound 223],"Plant response rating (0-100), Thistle",[11]; Postemergence,60
same,"Plant response rating (0-100), Thistle",[11]; Preemergence,60
same,"Plant response rating (0-100), Buckwheat, Wild",[12]; Postemergence,40
same,"Plant response rating (0-100), Buckwheat, Wild",[12]; Preemergence,55
same,"Plant response rating (0-100), Windgrass",[13]; Postemergence,50
same,"Plant response rating (0-100), Windgrass",[13]; Preemergence,100

# From patent US20060069132A1, “Azolecarboxamide herbicides” (priority 2004, published 2006)
